Reference: patent US7935674B2, “Indole derivatives” (Mitsubishi Tanabe Pharma Corporation, priority 2005, dated 2011)
Like-named read-outs stand apart in the source and are kept apart here.

Assays:
[1] = target: T1, human SGLT2 (Homo sapiens, UniProt P31639); test: Assay for SGLT2 inhibition (14C-AMG uptake in CHOK1 cells expressing human SGLT2); assay type: cell-based
T1 construct: expressed in transfected cells; host or cells: CHOK1 (Chinese hamster ovary) cells, kept under Geneticin selection
T1 sequence (P31639 1-672): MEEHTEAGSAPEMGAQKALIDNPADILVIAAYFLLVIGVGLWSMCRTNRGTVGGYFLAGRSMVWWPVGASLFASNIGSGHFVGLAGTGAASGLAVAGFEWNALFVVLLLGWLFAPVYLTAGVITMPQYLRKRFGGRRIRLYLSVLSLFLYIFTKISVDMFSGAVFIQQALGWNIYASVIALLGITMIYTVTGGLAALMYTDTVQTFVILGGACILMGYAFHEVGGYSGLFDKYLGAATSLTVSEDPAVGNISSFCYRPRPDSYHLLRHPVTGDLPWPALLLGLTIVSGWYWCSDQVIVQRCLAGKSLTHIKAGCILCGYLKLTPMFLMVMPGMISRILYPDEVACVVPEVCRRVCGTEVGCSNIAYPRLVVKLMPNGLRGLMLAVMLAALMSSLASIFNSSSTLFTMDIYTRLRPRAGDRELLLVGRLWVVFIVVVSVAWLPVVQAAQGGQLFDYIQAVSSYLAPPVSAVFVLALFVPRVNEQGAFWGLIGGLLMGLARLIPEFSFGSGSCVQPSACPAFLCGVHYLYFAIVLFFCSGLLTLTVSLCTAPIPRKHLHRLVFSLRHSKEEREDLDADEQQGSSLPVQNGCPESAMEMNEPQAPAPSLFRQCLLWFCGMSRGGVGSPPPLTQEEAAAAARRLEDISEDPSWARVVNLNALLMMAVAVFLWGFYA
Description: 1. Assay for SGLT2 Inhibition
Compounds described in the above examples were used for the SGLT2 inhibition assay.
CHOK1 cells expressing human SGLT2 were seeded in 24-well plates at a density of 400,000 cells/well in F-12 nutrient mixture (Ham's F-12) containing 10% fetal bovine serum, 400 μg/ml Geneticin, 50 units/ml sodium penicillin G (Gibco-BRL) and 50 μg/ml streptomycin sulfate. After 2 days of culture at 37° C. in a humidified atmosphere containing 5% CO2, cells were washed once with the assay buffer (137 mM NaCl, 5 mM KCl, 1 mM CaCl2, 1 mM MgCl2, 50 mM Hepes, and 20 mM Tris, pH 7.4) and incubated with 250 μl of the buffer containing test compounds for 10 min at 37° C. Test compounds were dissolved in DMSO. The final concentration of DMSO was 0.5%. The transport reaction was initiated by addition of 50 μl [^14C]-methyl-α-D-glucopyranoside (^14C-AMG) solution (final concentration, 0.5 mM). After incubation for 2 hours at 37° C., the uptake was stopped by aspiration of the incubation mixture, the cells were washed three times with ice-cold PBS. Then, cells were solubilized with 0.3 N NaOH and aliquots were taken for determination of radioactivity by a liquid scintillation counter. Nonspecific AMG uptake was defined as that which occurred in the presence of 100 μM of phlorizin, a specific inhibitor of sodium-dependent glucose cotransporter. Specific uptake was normalized for the protein concentrations measured by the method of Bradford. The 50% inhibitory concentration (IC50) values were calculated from dose-response curves by least square method.

[2] = system: Sprague-Dawley (SD) rats; test: Urinary glucose excretion test in rats; assay type: in vivo, rat; conditions: male SD rats; 30 mg/kg by oral gavage; urine collected for 24 hours; daily amount of glucose excreted in urine per individual
Description: 2. Urinary Glucose Excretion Test in Rats Test Compounds:
Compounds described in the above examples were used for the Urinary glucose excretion test in rats.
6-week-old male Sprague-Dawley (SD) rats were housed in individual metabolic cages with free access to food and water from 2 days prior to the experiment. On the morning of the experiment, rats were administered vehicle (0.2% carboxymethyl cellulose solution containing 0.2% Tween80) or test compounds (30 mg/kg) by oral gavage at a volume of 10 ml/kg. Then, urine of the rat was collected for 24 hours, and the urine volume was measured. Subsequently, the glucose concentration in urine was quantified using the enzymatic assay kit and the daily amount of glucose excreted in urine per individual was calculated.

[3] = CHOK1 cells expressing human SGLT2, 14C-AMG uptake, 0.5 mM, 2 hours at 37° C., read-out: IC50

SMILES | IC50 [1] [nM] | Urinary glucose [2] | IC50 [1, 3] [nM]
Cc1cccc2c1c(Cc1ccc(C3CC3)cc1)cn2[C@@H]1O[C@H](CO)[C@@H](O)[C@H](O)[C@H]1O [Example 47, 3-(4-Cyclopropylphenylmethyl)-4-methyl-1-(β-D-gluco-pyranosyl)indole] | 1.6 | A (A≧2400 mg) | 
OC[C@H]1O[C@@H](n2cc(Cc3ccc4occc4c3)c3c(Cl)cc(Cl)cc32)[C@H](O)[C@@H](O)[C@@H]1O [Example 32, 3-(Benzo[b]furan-5-yl-methyl)-4,6-dichloro-1-(β-D-gluco-pyranosyl)indole] |  | B (2400 mg>B≧2000 mg) | 7.5
CCOc1ccc(Cc2cn([C@@H]3O[C@H](CO)[C@@H](O)[C@H](O)[C@H]3O)c3ccc(F)c(Cl)c23)cc1 [Example 35, 4-Chloro-3-(4-ethoxyphenylmethyl)-5-fluoro-1-(β-D-gluco-pyranosyl)indole] |  | A (A≧2400 mg) | 9.1
OC[C@H]1O[C@@H](n2cc(Cc3ccc(Br)cc3)c3c(Br)cccc32)[C@H](O)[C@@H](O)[C@@H]1O [Example 41, 4-Bromo-3-(4-bromophenylmethyl)-1-(β-D-glucopyranosyl)indole] |  | B (2400 mg>B≧2000 mg) | 12
OC[C@H]1O[C@@H](n2cc(Cc3ccc(OC(F)F)cc3)c3c(F)cccc32)[C@H](O)[C@@H](O)[C@@H]1O [Example 26, 3-(4-(Difluoromethoxy)phenylmethyl)-4-fluoro-1-(β-D-gluco-pyranosyl)indole] |  | A (A≧2400 mg) | 11
OC[C@H]1O[C@@H](n2cc(Cc3ccc4occc4c3)c3c(Br)cccc32)[C@H](O)[C@@H](O)[C@@H]1O [Example 43, 3-(Benzo[b]furan-5-yl-methyl)-4-bromo-1-(β-D-glucopyranosyl)-indole] |  | A (A≧2400 mg) | 8.4
OC[C@H]1O[C@@H](n2cc(Cc3ccc(I)cc3)c3c(Cl)c(F)ccc32)[C@H](O)[C@@H](O)[C@@H]1O [Example 37, 4-Chloro-5-fluoro-3-(4-iodophenylmethyl)-1-(β-D-gluco-pyranosyl)indole] |  | B (2400 mg>B≧2000 mg) | 14
CCc1ccc(Cc2cn([C@@H]3O[C@H](CO)[C@@H](O)[C@H](O)[C@H]3O)c3cccc(F)c23)cc1 [Example 2, 3-(4-Ethylphenylmethyl)-4-fluoro-1-(β-D-glucopyranosyl)-indole] |  | A (A≧2400 mg) | 5.2
OC[C@H]1O[C@@H](n2cc(Cc3ccc(C(F)F)cc3)c3c(F)cccc32)[C@H](O)[C@@H](O)[C@@H]1O [Example 25, 3-(4-(Difluoromethyl)phenylmethyl)-4-fluoro-1-(β-D-gluco-pyranosyl)indole] |  | B (2400 mg>B≧2000 mg) | 11
OC[C@H]1O[C@@H](n2cc(Cc3ccc(OC(F)(F)F)cc3)c3c(Cl)cccc32)[C@H](O)[C@@H](O)[C@@H]1O [Example 29, 4-Chloro-3-(4-(trifluoromethoxy)phenylmethyl)-1-(β-D-gluco-pyranosyl)indole] |  | B (2400 mg>B≧2000 mg) | 9.6
OC[C@H]1O[C@@H](n2cc(Cc3ccc(OCCCl)cc3)c3c(Cl)cccc32)[C@H](O)[C@@H](O)[C@@H]1O [Example 19, 4-Chloro-3-(4-(2-chloroethyloxy)phenylmethyl)-1-(β-D-gluco-pyranosyl)indole] |  | A (A≧2400 mg) | 3.9
OC[C@H]1O[C@@H](n2cc(Cc3ccc(C(F)F)cc3)c3c(Cl)cccc32)[C@H](O)[C@@H](O)[C@@H]1O [Example 30, 4-Chloro-3-(4-(difluoromethyl)phenylmethyl)-1-(β-D-gluco-pyranosyl)indole] |  | A (A≧2400 mg) | 3.2
OC[C@H]1O[C@@H](n2cc(Cc3ccc(Br)cc3)c3c(Cl)cccc32)[C@H](O)[C@@H](O)[C@@H]1O [Example 14, 3-(4-Bromophenylmethyl)-4-chloro-1-(β-D-glucopyranosyl)-indole] |  | A (A≧2400 mg) | 8.1
OC[C@H]1O[C@@H](n2cc(Cc3ccc(O)cc3)c3c(Cl)cccc32)[C@H](O)[C@@H](O)[C@@H]1O [Example 46, 4-Chloro-3-(4-hydroxyphenylmethyl)-1-(β-D-glucopyranosyl)-indole] |  | A (A≧2400 mg) | 2.4
Cc1cccc2c1c(Cc1ccc(I)cc1)cn2[C@@H]1O[C@H](CO)[C@@H](O)[C@H](O)[C@H]1O [Example 39, 3-(4-Iodophenylmethyl)-4-methyl-1-(β-D-glucopyranosyl)indole] |  | B (2400 mg>B≧2000 mg) | 3.6
OC[C@H]1O[C@@H](n2cc(Cc3ccc(OC(F)F)cc3)c3c(Cl)cccc32)[C@H](O)[C@@H](O)[C@@H]1O [Example 31, 4-Chloro-3-(4-(difluoromethoxy)phenylmethyl)-1-(β-D-gluco-pyranosyl)indole] |  | A (A≧2400 mg) | 2.6
OC[C@H]1O[C@@H](n2cc(Cc3ccc4occc4c3)c3c(F)cccc32)[C@H](O)[C@@H](O)[C@@H]1O [Example 20, 3-(Benzo[b]furan-5-yl-methyl)-4-fluoro-1-(β-D-glucopyranosyl) indole] |  | A (A≧2400 mg) | 5.7
OC[C@H]1O[C@@H](n2cc(Cc3ccc(OCCCl)cc3)c3c(F)cccc32)[C@H](O)[C@@H](O)[C@@H]1O [Example 13, 3-(4-(2-Chloroethyloxy)phenylmethyl)-4-fluoro-1-(β-D-gluco-pyranosyl)indole] |  | B (2400 mg>B≧2000 mg) | 6
OC[C@H]1O[C@@H](n2cc(Cc3ccc(I)cc3)c3c(Cl)cccc32)[C@H](O)[C@@H](O)[C@@H]1O [Example 33, 4-Chloro-3-(4-iodophenylmethyl)-1-(β-D-glucopyranosyl)-indole] |  | A (A≧2400 mg) | 4.1
OC[C@H]1O[C@@H](n2cc(Cc3ccc(Cl)cc3)c3c(Br)cccc32)[C@H](O)[C@@H](O)[C@@H]1O [Example 44, 4-Bromo-3-(4-chlorophenylmethyl)-1-(β-D-glucopyranosyl)indole] |  | B (2400 mg>B≧2000 mg) | 20
OC[C@H]1O[C@@H](n2cc(Cc3ccc4occc4c3)c3c(Cl)cccc32)[C@H](O)[C@@H](O)[C@@H]1O [Example 15, 3-(Benzo[b]furan-5-yl-methyl)-4-chloro-1-(β-D-glucopyranosyl)indole] |  | A (A≧2400 mg) | 3.3
OC[C@H]1O[C@@H](n2cc(Cc3ccc(Br)s3)c3c(Cl)cccc32)[C@H](O)[C@@H](O)[C@@H]1O [Example 7, 3-(5-Bromo-2-thienylmethyl)-4-chloro-1-(β-D-glucopyranosyl)-indole] |  | B (2400 mg>B≧2000 mg) | 5
OC[C@H]1O[C@@H](n2cc(Cc3ccc(I)cc3)c3c(Br)cccc32)[C@H](O)[C@@H](O)[C@@H]1O [Example 42, 4-Bromo-3-(4-iodophenylmethyl)-1-(β-D-glucopyranosyl)indole] |  | A (A≧2400 mg) | 6.1
OC[C@H]1O[C@@H](n2cc(Cc3ccc(I)cc3)c3c(Cl)cc(Cl)cc32)[C@H](O)[C@@H](O)[C@@H]1O [Example 36, 4,6-Dichloro-3-(4-iodophenylmethyl)-1-(β-D-glucopyranosyl)-indole] |  | B (2400 mg>B≧2000 mg) | 14
